Test [1] concerns the target ACC1 (Homo sapiens (Human), UniProt Q13085). The experiment in a line: ACC1 enzyme activity assay (ADP-Glo). The settings on record: ACC1 enzyme 2 nM working solution, room temperature. Format: biochemical. The protocol:
(§1) Compound preparation: the compounds of the present disclosure prepared in the above examples and the control compound were respectively formulated into 10 mM with DMSO for use.
(§2) Preparation of 1× reaction buffer (pH=7.4): HEPES stock solutions (1 M), MgCl2 (1 M), BRIJ-35 (10%), potassium citrate buffer (1 M), BSA (10 mg/mL) and DTT (500 mM) were formulated to enzyme reaction buffer containing HEPES (50 mM), MgCl2 (2 mM), BRIJ-35 (0.01%), potassium citrate buffer (2 mM), BSA (50 Gg/mL) and DTT (2 mM).
4.5 μL of 2.2×ACC1 enzyme (2 nM) working solution was added to a 384-well plate; and then 0.5 μL of different concentrations of compound were added. The mixture was incubated at room temperature for 15 min.
(§3) Negative control group: menstruum containing 5% DMSO; positive control group: menstruum containing 100 nM ND-630. The average values of each concentration and the positive and negative controls were calculated, and the standard deviation was calculated. […] The inhibition rate data was fitted by nonlinear regression equation to calculate IC50 of each compound. The nonlinear regression equation was Y=lowest value+(highest value−lowest value)/(1+10^((Log IC50−X)×HillSlope)), among which X is logarithm of the compound concentration and Y is inhibition percent (%).

Test [2] concerns the target ACC2 (Homo sapiens (Human), UniProt O00763). Description: ACC2 enzyme activity assay (ADP-Glo). The settings on record: ACC2 enzyme 1.1 nM working solution, room temperature. It is filed as biochemical. The protocol: as §1, §2
The mixture was incubated at room temperature for 15 min.
as §3

Chain of ACC2 (O00763 whole entry): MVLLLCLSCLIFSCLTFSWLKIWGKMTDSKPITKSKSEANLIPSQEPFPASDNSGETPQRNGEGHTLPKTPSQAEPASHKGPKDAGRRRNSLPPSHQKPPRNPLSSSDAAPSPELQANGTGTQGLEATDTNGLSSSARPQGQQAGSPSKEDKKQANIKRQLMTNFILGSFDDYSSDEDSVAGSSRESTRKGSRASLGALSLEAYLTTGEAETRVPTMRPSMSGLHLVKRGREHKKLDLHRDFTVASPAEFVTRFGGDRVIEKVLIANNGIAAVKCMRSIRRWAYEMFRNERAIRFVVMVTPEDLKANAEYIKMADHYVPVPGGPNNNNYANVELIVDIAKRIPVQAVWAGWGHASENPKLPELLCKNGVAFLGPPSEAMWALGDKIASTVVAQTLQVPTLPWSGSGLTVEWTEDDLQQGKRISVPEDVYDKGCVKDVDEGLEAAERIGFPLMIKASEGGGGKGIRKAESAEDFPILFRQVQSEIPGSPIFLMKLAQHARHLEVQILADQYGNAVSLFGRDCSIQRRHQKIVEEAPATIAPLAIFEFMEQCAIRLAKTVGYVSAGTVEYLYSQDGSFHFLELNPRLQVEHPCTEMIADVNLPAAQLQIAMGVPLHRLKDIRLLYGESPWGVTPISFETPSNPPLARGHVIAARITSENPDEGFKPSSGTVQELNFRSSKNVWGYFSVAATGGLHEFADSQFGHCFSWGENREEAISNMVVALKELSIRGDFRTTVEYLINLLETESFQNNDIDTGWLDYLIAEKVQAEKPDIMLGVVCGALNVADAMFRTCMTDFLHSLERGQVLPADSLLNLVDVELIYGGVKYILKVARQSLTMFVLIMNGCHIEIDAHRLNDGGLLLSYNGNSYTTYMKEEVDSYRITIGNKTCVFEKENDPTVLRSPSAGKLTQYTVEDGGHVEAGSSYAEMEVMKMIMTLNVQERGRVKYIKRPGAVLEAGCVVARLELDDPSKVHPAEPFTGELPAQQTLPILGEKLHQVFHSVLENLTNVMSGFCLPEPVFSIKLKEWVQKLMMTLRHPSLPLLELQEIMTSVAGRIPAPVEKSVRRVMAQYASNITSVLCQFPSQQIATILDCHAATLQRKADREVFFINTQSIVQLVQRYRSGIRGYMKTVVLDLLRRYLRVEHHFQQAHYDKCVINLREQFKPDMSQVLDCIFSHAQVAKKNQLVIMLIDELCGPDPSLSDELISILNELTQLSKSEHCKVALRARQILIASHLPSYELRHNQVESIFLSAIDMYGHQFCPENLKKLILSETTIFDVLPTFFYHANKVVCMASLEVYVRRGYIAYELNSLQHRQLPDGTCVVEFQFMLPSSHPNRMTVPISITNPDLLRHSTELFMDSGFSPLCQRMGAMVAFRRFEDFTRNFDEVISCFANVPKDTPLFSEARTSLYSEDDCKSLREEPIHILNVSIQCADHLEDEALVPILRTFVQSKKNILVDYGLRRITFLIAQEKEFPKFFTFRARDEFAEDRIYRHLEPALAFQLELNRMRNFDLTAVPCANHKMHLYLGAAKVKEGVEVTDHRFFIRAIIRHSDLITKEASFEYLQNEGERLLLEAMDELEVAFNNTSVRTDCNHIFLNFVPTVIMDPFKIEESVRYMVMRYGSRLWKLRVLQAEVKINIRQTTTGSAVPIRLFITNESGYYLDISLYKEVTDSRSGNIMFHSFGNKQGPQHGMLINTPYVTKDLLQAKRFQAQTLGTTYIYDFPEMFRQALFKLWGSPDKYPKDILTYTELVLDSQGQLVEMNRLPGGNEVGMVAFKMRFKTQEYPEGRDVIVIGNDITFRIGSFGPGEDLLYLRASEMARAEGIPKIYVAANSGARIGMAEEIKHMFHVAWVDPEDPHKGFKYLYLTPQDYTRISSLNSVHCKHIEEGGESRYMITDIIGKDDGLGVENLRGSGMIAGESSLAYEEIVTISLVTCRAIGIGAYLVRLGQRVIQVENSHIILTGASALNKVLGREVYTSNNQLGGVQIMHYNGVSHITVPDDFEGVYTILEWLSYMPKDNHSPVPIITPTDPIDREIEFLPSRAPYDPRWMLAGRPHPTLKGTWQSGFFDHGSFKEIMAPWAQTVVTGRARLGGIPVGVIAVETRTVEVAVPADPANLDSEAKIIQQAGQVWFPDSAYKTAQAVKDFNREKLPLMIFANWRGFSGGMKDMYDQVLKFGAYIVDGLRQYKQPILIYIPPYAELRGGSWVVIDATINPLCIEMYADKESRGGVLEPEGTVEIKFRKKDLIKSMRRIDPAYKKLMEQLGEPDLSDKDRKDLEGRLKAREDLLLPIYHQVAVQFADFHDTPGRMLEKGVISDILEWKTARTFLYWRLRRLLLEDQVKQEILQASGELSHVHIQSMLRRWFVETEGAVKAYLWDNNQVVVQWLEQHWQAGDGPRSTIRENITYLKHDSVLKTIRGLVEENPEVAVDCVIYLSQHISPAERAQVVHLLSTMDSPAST

Compound `COc1ccccc1C(Cn1c(=O)n(C2CC(F)(F)C2)c(=O)c2c(C)c(-c3ncco3)sc21)OC1CCOCC1` (centres unmarked) [Example 2, 3-(3,3-Difluorocyclobutyl)-1-(2-(2-methoxyphenyl)-2-((tetrahydro-2H-pyran-4-yl)oxy)ethyl)-5-methyl-6-(oxazol-2-yl)thieno[2,3-d]pyrimidine-2,4(1H,3H)-dione] registered an IC50 in test [1] of 8.7 nM.
For `COc1ccccc1C(Cn1c(=O)n(C2CN(S(C)(=O)=O)C2)c(=O)c2c(C)c(-c3ncco3)sc21)OC1CCOCC1` (centres unmarked) [Example 9, 1-(2-(2-methoxyphenyl)-2-((tetrahydro-2H-pyran-4-yl)oxy)ethyl)-5-methyl-3-(1-(methylsulfonyl)azetidin-3-yl)-6-(oxazol-2-yl)thieno[2,3-d]pyrimidine-2,4(1H,3H)-dione], the 50% inhibitory concentration (IC50) was determined as 7.92 nM in test [2] and 2.03 nM in test [1].
As for `COc1ccccc1C(Cn1c(=O)n(C(C)(C)C(=O)O)c(=O)c2c(C)c(-c3ncco3)sc21)OC1CCNCC1` (centres unmarked) [Example 17], the IC50 in test [1] was determined as 7.66 nM.
As to `COc1ccccc1C(Cn1c(=O)n(-c2cccc(C(=O)O)c2OC)c(=O)c2c(C)c(-c3ncco3)sc21)OC1CCOCC1` (centres unmarked) [Example 29, 2-Methoxy-3-(1-(2-(2-methoxyphenyl)-2-((tetrahydro-2H-pyran-4-yl)oxy)ethyl)-5-methyl-6-(oxazol-2-yl)-2,4-dioxo-1,4-dihydrothieno[2,3-d]pyrimidin-3(2H)-yl)benzoic Acid], the IC50 was determined as 14.1 nM in test [2] and 2.13 nM in test [1].
`COc1ccccc1C(Cn1c(=O)n(C2CC(OCCF)C2)c(=O)c2c(C)c(-c3ncco3)sc21)OC1CCOCC1` (centres unmarked) [Example 31] registered an IC50 in test [1] of 136 nM.
On the same count and under the same terms, under `COc1ccccc1C(Cn1c(=O)n(-c2cc(C(=O)O)ccc2OC)c(=O)c2c(C)c(-c3ncco3)sc21)OC1CCOCC1` (centres unmarked) [Example 27] stands 11.8 nM.
With `COc1ccccc1C(Cn1c(=O)n(C2CN(C(=O)C3CC3)C2)c(=O)c2c(C)c(-c3ncco3)sc21)OC1CCOCC1` (centres unmarked) [Example 8, 3-(1-(cyclopropanecarbonyl)azetidin-3-yl)-1-(2-(2-methoxyphenyl)-2-((tetrahydro-2H-pyran-4-yl)oxy)ethyl)-5-methyl-6-thieno[2,3-d]pyrimidine-2,4(1H,3H)-dione], the IC50 in test [2] amounted to 13.1 nM; in test [1], 1.12 nM.
Regarding `COc1ccccc1C(Cn1c(=O)n(-c2c(C)ccn3ccnc23)c(=O)c2c(C)c(-c3ncco3)sc21)OC1CCOCC1` (centres unmarked) [Example 5, 1-(2-(2-methoxyphenyl)-2-((tetrahydro-2H-pyran-4-yl)oxy)ethyl)-5-methyl-3-(7-methylimidazo[1,2-a]pyridin-8-yl)-6-(oxazol-2-yl)thieno[2,3-d]pyrimidine-2,4(1H, 3H)-diketone], in test [1], 38.5 nM corresponded to half-maximal inhibition (IC50).
As to `COc1ccccc1C(Cn1c(=O)n(C2CN(C(=O)N3CC(C)(C(=O)O)C3)C2)c(=O)c2c(C)c(-c3ncco3)sc21)OC1CCOCC1` (centres unmarked) [Example 15, 1-(3-(1-(2-(2-methoxyphenyl)-2-((tetrahydro-2H-pyran-4-yl)oxy)ethyl)-5-methyl-6-(oxazol-2-yl)-2,4-dioxo-1,2-dihydrothieno[2,3-d]pyrimidin-3 (4H)-yl)azetidine-1-carbonyl)-3-methylazetidine-3-carboxylic Acid], in test [1], inhibition was half-maximal at 8.79 nM (IC50).
`COc1ccccc1C(Cn1c(=O)n(-c2cccc(C(=O)O)c2F)c(=O)c2c(C)c(-c3ncco3)sc21)OC1CCOCC1` (centres unmarked) [Example 28, 2-Fluoro-3-(1-(2-(2-methoxyphenyl)-2-((tetrahydro-2H-pyran-4-yl)oxy)ethyl)-5-methyl-6-(oxazol-2-yl)-2,4-dioxo-1,4-dihydrothieno[2,3-d]pyrimidin-3(2H)-yl)benzoic Acid]: the IC50 in test [2] is 7.8 nM; in test [1], 1.48 nM.
Turning to `COc1ccccc1C(Cn1c(=O)n(C(C)(C)C(=O)O)c(=O)c2c(C)c(-c3ncco3)sc21)OC1CCN(C(=O)C2CC2)CC1` (centres unmarked) [Example 21], 0.7 nM corresponded to half-maximal inhibition in test [1] (IC50).
On the same count and under the same terms, under `COc1ccccc1C(Cn1c(=O)n(C2CN(C(=O)c3ccccc3)C2)c(=O)c2c(C)c(-c3ncco3)sc21)OC1CCOCC1` (centres unmarked) [Example 11, 3-(1-benzoylazetidin-3-yl)-1-(2-(2-methoxyphenyl)-2-((tetrahydro-2H-pyran-4-yl)oxy)ethyl)-5-methyl-6-(oxazol-2-yl)thieno[2,3-d]pyrimidine-2,4(1H,3H)-dione] stands 4.5 nM.
For the compound `COc1ccccc1[C@H](Cn1c(=O)n([C@H]2C[C@](C)(C(=O)O)C2)c(=O)c2c(C)c(-c3ncco3)sc21)OC1CCOCC1` [Example 3, (1R,3r)-3-(1-((R)-2-(2-methoxyphenyl)-2-((tetrahydro-2H-pyran-4-yl)oxy)ethyl)-5-methyl-6-(oxazol-2-yl)-2,4-dioxo-1,4-dihydrothieno[2,3-d]pyrimidine-3(2H)-yl)-1-methylcyclobutanecarboxylic Acid], the IC50 in test [2] stood at 11.9 nM; in test [1] it was 1 nM.
Consider `COc1ccccc1C(Cn1c(=O)n(C2CN(C(=O)N3CC(C)(O)C3)C2)c(=O)c2c(C)c(-c3ncco3)sc21)OC1CCOCC1` (centres unmarked) [Example 16, 3-(1-(3-Hydroxy-3-methylazetidin-1-oyl)azetidin-3-yl)-1-(2-(2-methoxyphenyl)-2-((tetrahydro-2H-pyran-4-yl)oxy)ethyl)-5-methyl-6-(oxazol-2-yl)thieno[2,3-d]pyrimidine-2,4(1H,3H)-dione], for which the IC50 in test [1] amounted to 6.89 nM.
`COc1ccccc1C(Cn1c(=O)n(-c2cc(C(=O)O)ccc2F)c(=O)c2c(C)c(-c3ncco3)sc21)OC1CCOCC1` (centres unmarked) [Example 30, 4-Fluoro-3-(1-(2-(2-methoxyphenyl)-2-((tetrahydro-2H-pyran-4-yl)oxy)ethyl)-5-methyl-6-(oxazol-2-yl)-2,4-dioxo-1,4-dihydrothieno[2,3-d]pyrimidin-3(2H)-yl)benzoic Acid] registered an IC50 in test [1] of 7.97 nM.
Take `COc1ccccc1C(Cn1c(=O)n(-c2ccc(C(=O)O)cc2OC)c(=O)c2c(C)c(-c3ncco3)sc21)OC1CCOCC1` (centres unmarked) [Example 26, 3-methoxy-4-(1-(2-(2-methoxyphenyl)-2-((tetrahydro-2H-pyran-4-yl)oxy)ethyl)-5-methyl-6-(oxazol-2-yl)-2,4-dioxo-1,4-dihydrothieno[2,3-d]pyrimidin-3(2H)-yl)benzoic Acid]: the IC50 was 10.3 nM in test [2] and 0.87 nM in test [1].
The matching figures for `COc1ccccc1C(Cn1c(=O)n(C(C)(C)C(=O)O)c(=O)c2c(C)c(-c3ncco3)sc21)OC1CCN(S(C)(=O)=O)CC1` (centres unmarked) [Example 22]: 5.13 nM and 0.63 nM.
On to `COc1ccccc1C(Cn1c(=O)n(C(C)(C)C(=O)O)c(=O)c2c(C)c(-c3ncco3)sc21)OC1CCN(C(C)=O)CC1` (centres unmarked) [Example 20, 2-(1-(2-((1-acetylpiperidin-4-yl)oxy)-2-(2-methoxyphenyl)ethyl)-5-methyl-6-(oxazol-2-yl)-2,4-dioxo-1,4-dihydrothieno[2,3-d]pyrimidin-3(2H)-yl)-2-methylpropionic Acid], for which the IC50 in test [2] was found to be 8.03 nM; in test [1], 0.91 nM.
In test [1], `COc1ccccc1C(Cn1c(=O)n(C(C)(C)C(=O)O)c(=O)c2c(C)c(-c3ncco3)sc21)OC1CN(C(C)=O)C1` (centres unmarked) [Example 23] had an IC50 of 11.5 nM.
Same read-out and setting: with `COc1ccccc1C(Cn1c(=O)n(C(C)(C)C(=O)O)c(=O)c2c(C)c(-c3ncco3)sc21)N1CCCCC1` (centres unmarked) [Example 18, 2-(1-(2-(2-methoxyphenyl)-2-(piperidin-1-yl)ethyl)-5-methyl-6-(oxazol-2-yl)-2,4-dioxo-1,4-dihydrothieno[2,3-d]pyrimidin-3(2H)-yl)-2-methylpropionic Acid] the figure was above 1000 nM.
Turning to `COc1ccccc1C(Cn1c(=O)n(C2CN(C(=O)c3ncc[nH]3)C2)c(=O)c2c(C)c(-c3ncco3)sc21)OC1CCOCC1` (centres unmarked) [Example 14], the values for the IC50 in test [2] and in test [1] were 7.85 nM and 1.69 nM, respectively.
For `COc1ccccc1C(Cn1c(=O)n(C2CN(C(=O)N3CCOCC3)C2)c(=O)c2c(C)c(-c3ncco3)sc21)OC1CCOCC1` (centres unmarked) [Example 12, 1-(2-(2-methoxyphenyl)-2-((tetrahydro-2H-pyran-4-yl)oxy)ethyl)-5-methyl-3-(1-(morpholine-4-formyl)azetidin-3-yl)-6-(oxazol-2-yl)thieno[2,3-d]pyrimidine-2,4(1H,3H)-dione] the same measures were 8.04 nM and 1.22 nM.
On to `COc1ccccc1C(Cn1c(=O)n(C(C)(C)C(=O)O)c(=O)c2c(C)c(-c3ncco3)sc21)OC1CCN(C)CC1` (centres unmarked) [Example 19, 2-(1-(2-(2-methoxyphenyl)-2-((1-methylpiperidin-4-yl)oxy)ethyl)-5-methyl-6-(oxazol-2-yl)-2,4-dioxo-1,4-dihydrothieno[2,3-d]pyrimidin-3(2H)-yl)-2-methylpropionic Acid], for which 23.3 nM corresponded to half-maximal inhibition in test [1] (IC50).
For the compound `COc1ccccc1C(Cn1c(=O)n(C2CN(C(=O)c3ccccn3)C2)c(=O)c2c(C)c(-c3ncco3)sc21)OC1CCOCC1` (centres unmarked) [Example 13, 1-(2-(2-methoxyphenyl)-2-((tetrahydro-2H-pyran-4-yl)oxy)ethyl)-5-methyl-6-(oxazol-2-yl)-3-(1-pyridineformylazetidin-3-yl)thieno[2,3-d]pyrimidine-2,4(1H,3H)-dione], the 50% inhibitory concentration (IC50) in test [2] stood at 11.6 nM; in test [1], 2.33 nM.

Values taken from US11186587B2, “Compound as ACC inhibitor and use thereof” (NANJING SANHOME PHARMACEUTICAL CO., LTD., priority 2017, dated 2021).
